From patent US10202658B2, “Methods for determining hypersusceptibility of HIV-1 to non-nucleoside reverse transcriptase inhibitors” (Monogram Biosciences, Inc., priority 2005, dated 2019)

System: HIV-1 clinical isolates grouped by RT mutations
Test: Pairwise comparison of NNRTI fold change between groups of clinical isolates (Student's T-test, Bonferroni's Multiple Comparison Test)
Format: cell-based
Procedure: This example provides methods and compositions for identifying mutations that correlate with hypersusceptibility to a NNRTI. Resistance test vectors were constructed and used as described in Example 1. Resistance test vectors derived from patient samples or clones derived from the resistance test vector pools were tested in a resistance assay to determine accurately and quantitatively the relative EFV, DLV, or NVP resistance or susceptibility compared to the median observed resistance or susceptibility.
To identify mutations associated with NNRTI hypersusceptibility, the following analysis was performed. […] The TAMs referenced in. Table 1 include M41L, D67N, K70R, L210W, T215FY, and K219X, while the NAMs referenced include K65R, T69X, L74IV, V75X, and M184IV. Isolates without NRTI, NNRTI or PI mutations served as a wild type (WT) reference group. Further comparison groups comprised isolates with three TAMS including T215Y (+/−H208Y, +/−V118I) or three TAMS including K70R. Scatter plots and statistical tests (See FIGS. 1-6) were generated using Prism 4.0 (GraphPad, San Diego, Calif.)
In addition, a pairwise comparison between two sets of data was conducted using Bonferroni's Multiple Comparison Test using the Prism 4.0 software. The results of the comparison are presented in Tables 2, 3, and 4, appended to the end of this document. Samples with K65R, K65R+M184V, or 2 TAMs in combination with T215Y had over 40% with EFV FC<0.4.

SMILES: Cc1ccnc2c1NC(=O)c1cccnc1N2C1CC1 [NVP, nevirapine]
- Mean Diff. of fold change (1 NAM vs 2 NAMs): 0.2694
- Mean Diff. of fold change (1 NAM vs 3 NAMs): 0.221
- Mean Diff. of fold change (1 NAM vs K65R): 0.3361
- Mean Diff. of fold change (1 NAM vs K65R + M184V): 0.3786
- Mean Diff. of fold change (1 NAM vs K70R_3_TAMs): 0.08835
- Mean Diff. of fold change (1 NAM vs M184V): −0.01357
- Mean Diff. of fold change (1 NAM vs T69): −0.03843
- Mean Diff. of fold change (1 NAM vs T215Y_3_TAMs): 0.211
- Mean Diff. of fold change (1 NAM vs T215Y_3_TAMs_118): 0.2013
- Mean Diff. of fold change (1 NAM vs T215Y_3_TAMs_208): 0.2552
- Mean Diff. of fold change (1 NAM vs T215Y_3_TAMs_no118): 0.2175
- Mean Diff. of fold change (1 NAM vs T215Y_3_TAMs_no208): 0.204
- Mean Diff. of fold change (2 NAMs vs 3 NAMs): −0.04846
- Mean Diff. of fold change (2 NAMs vs K65R): 0.06669
- Mean Diff. of fold change (2 NAMs vs K65R + M184V): 0.1092
- Mean Diff. of fold change (2 NAMs vs K70R_3_TAMs): −0.1811
- Mean Diff. of fold change (2 NAMs vs M184V): −0.283
- Mean Diff. of fold change (2 NAMs vs T69): −0.3079
- Mean Diff. of fold change (2 NAMs vs T215Y_3_TAMs): −0.05842
- Mean Diff. of fold change (2 NAMs vs T215Y_3_TAMs_118): −0.06817
- Mean Diff. of fold change (2 NAMs vs T215Y_3_TAMs_208): −0.01419
- Mean Diff. of fold change (2 NAMs vs T215Y_3_TAMs_no118): −0.05192
- Mean Diff. of fold change (2 NAMs vs T215Y_3_TAMs_no208): −0.06547
- Mean Diff. of fold change (3 NAMs vs K65R): 0.1151
- Mean Diff. of fold change (3 NAMs vs K65R + M184V): 0.1577
- Mean Diff. of fold change (3 NAMs vs K70R_3_TAMs): −0.1326
- Mean Diff. of fold change (3 NAMs vs M184V): −0.2345
- Mean Diff. of fold change (3 NAMs vs T69): −0.2594
- Mean Diff. of fold change (3 NAMs vs T215Y_3_TAMs): −0.009962
- Mean Diff. of fold change (3 NAMs vs T215Y_3_TAMs_118): −0.01971
- Mean Diff. of fold change (3 NAMs vs T215Y_3_TAMs_208): 0.03427
- Mean Diff. of fold change (3 NAMs vs T215Y_3_TAMs_no118): −0.003462
- Mean Diff. of fold change (3 NAMs vs T215Y_3_TAMs_no208): −0.01701
- Mean Diff. of fold change (K65R + M184V vs K70R_3_TAMs): −0.2903
- Mean Diff. of fold change (K65R + M184V vs T215Y_3_TAMs): −0.1676
- Mean Diff. of fold change (K65R + M184V vs T215Y_3_TAMs_118): −0.1774
- Mean Diff. of fold change (K65R + M184V vs T215Y_3_TAMs_208): −0.1234
- Mean Diff. of fold change (K65R + M184V vs T215Y_3_TAMs_no118): −0.1611
- Mean Diff. of fold change (K65R + M184V vs T215Y_3_TAMs_no208): −0.1747
- Mean Diff. of fold change (K65R vs K65R + M184V): 0.04252
- Mean Diff. of fold change (K65R vs K70R_3_TAMs): −0.2478
- Mean Diff. of fold change (K65R vs M184V): −0.3497
- Mean Diff. of fold change (K65R vs T69): −0.3746
- Mean Diff. of fold change (K65R vs T215Y_3_TAMs): −0.1251
- Mean Diff. of fold change (K65R vs T215Y_3_TAMs_118): −0.1349
- Mean Diff. of fold change (K65R vs T215Y_3_TAMs_208): −0.08088
- Mean Diff. of fold change (K65R vs T215Y_3_TAMs_no118): −0.1186
- Mean Diff. of fold change (K65R vs T215Y_3_TAMs_no208): −0.1322
- Mean Diff. of fold change (K70R_3_TAMs vs T215Y_3_TAMs_118): 0.1129
- Mean Diff. of fold change (K70R_3_TAMs vs T215Y_3_TAMs_no118): 0.1292
- Mean Diff. of fold change (M184V vs K65R + M184V): 0.3922
- Mean Diff. of fold change (M184V vs K70R_3_TAMs): 0.1019
- Mean Diff. of fold change (M184V vs T69): −0.02486
- Mean Diff. of fold change (M184V vs T215Y_3_TAMs): 0.2246
- Mean Diff. of fold change (M184V vs T215Y_3_TAMs_118): 0.2148
- Mean Diff. of fold change (M184V vs T215Y_3_TAMs_208): 0.2688
- Mean Diff. of fold change (M184V vs T215Y_3_TAMs_no118): 0.2311
- Mean Diff. of fold change (M184V vs T215Y_3_TAMs_no208): 0.2175
- Mean Diff. of fold change (T69 vs K65R + M184V): 0.4171
- Mean Diff. of fold change (T69 vs K70R_3_TAMs): 0.1268
- Mean Diff. of fold change (T69 vs T215Y_3_TAMs): 0.2494
- Mean Diff. of fold change (T69 vs T215Y_3_TAMs_118): 0.2397
- Mean Diff. of fold change (T69 vs T215Y_3_TAMs_208): 0.2937
- Mean Diff. of fold change (T69 vs T215Y_3_TAMs_no118): 0.2559
- Mean Diff. of fold change (T69 vs T215Y_3_TAMs_no208): 0.2424
- Mean Diff. of fold change (T215Y_3_TAMs vs K70R_3_TAMs): −0.1227
- Mean Diff. of fold change (T215Y_3_TAMs vs T215Y_3_TAMs_118): −0.00975
- Mean Diff. of fold change (T215Y_3_TAMs vs T215Y_3_TAMs_208): 0.04423
- Mean Diff. of fold change (T215Y_3_TAMs vs T215Y_3_TAMs_no118): 0.0065
- Mean Diff. of fold change (T215Y_3_TAMs vs T215Y_3_TAMs_no208): −0.007051
- Mean Diff. of fold change (T215Y_3_TAMs_208 vs K70R_3_TAMs): −0.1669
- Mean Diff. of fold change (T215Y_3_TAMs_208 vs T215Y_3_TAMs_118): −0.05398
- Mean Diff. of fold change (T215Y_3_TAMs_208 vs T215Y_3_TAMs_no118): −0.03773
- Mean Diff. of fold change (T215Y_3_TAMs_208 vs T215Y_3_TAMs_no208): −0.05128
- Mean Diff. of fold change (T215Y_3_TAMs_no118 vs T215Y_3_TAMs_118): −0.01625
- Mean Diff. of fold change (T215Y_3_TAMs_no208 vs K70R_3_TAMs): −0.1156
- Mean Diff. of fold change (T215Y_3_TAMs_no208 vs T215Y_3_TAMs_118): −0.002699
- Mean Diff. of fold change (T215Y_3_TAMs_no208 vs T215Y_3_TAMs_no118): 0.01355
- mean fold change (FC) compared to the WT population (all groups containing NAMs or the combination of TAMs shown in Table 1, p<0.0001, Student's T-test): significantly lower
- Mean Diff. of fold change (wt vs 1 NAM): 0.1982
- Mean Diff. of fold change (wt vs 2 NAMs): 0.4677
- Mean Diff. of fold change (wt vs 3 NAMs): 0.4192
- Mean Diff. of fold change (wt vs K65R): 0.5344
- Mean Diff. of fold change (wt vs K65R + M184V): 0.5769
- Mean Diff. of fold change (wt vs K70R_3_TAMs): 0.2866
- Mean Diff. of fold change (wt vs M184V): 0.1847
- Mean Diff. of fold change (wt vs T69): 0.1598
- Mean Diff. of fold change (wt vs T215Y_3_TAMs): 0.4092
- Mean Diff. of fold change (wt vs T215Y_3_TAMs_118): 0.3995
- Mean Diff. of fold change (wt vs T215Y_3_TAMs_208): 0.4535
- Mean Diff. of fold change (wt vs T215Y_3_TAMs_no118): 0.4157
- Mean Diff. of fold change (wt vs T215Y_3_TAMs_no208): 0.4022
